Data as given in US20230295235A1, “COMPOUNDS TARGETING ALPHA4-BETA7 INTEGRIN” (ZEALAND PHARMA A/S, priority 2020, published 2023).

Test system: DSS induced ulcerative colitis
Experiment: DSS induced chronic colitis (ulcerative colitis) mouse model
Type: in vivo
Protocol: The current study was conducted in the mice model of dextran Sodium Sulfate (DSS) induced ulcerative colitis (UC). DSS induces chronic colitis in experimental animals when given orally in drinking water for 7 days followed by no DSS in drinking water. Chronic intestinal inflammation is associated with body weight loss, diarrhea, blood in the stool and the infiltration of leucocytes from the blood to intestinal tissue. Among those cells, subpopulations of T lymphocytes such as Th1 and Th17 play an important role in the initiation and chronicity of inflammation. Trafficking of T cells from blood to target tissue is a complex process that is controlled by molecularly distinct adhesion and signaling steps. As such, the α4β7 and MAdCAM-1 adhesion mechanism may be closely involved in lymphocyte trafficking to the site of inflammation in the gut.
Evaluation of the therapeutic potential of the compound of Example 1 (cpd 1) in a mouse model of Dextran Sodium Sulfate (DSS) induced ulcerative colitis (UC)
Female C57BI/6 mice (Charles River, St-Constant, Qc), weighting 15-20 g at delivery were used for this study. Following arrival in the animal facility, all animals were subjected to a general health evaluation. […]
Specific symptoms associated to UC were scored based on the severity of each particular symptoms: • 1- blood in stool (negative hemoccult, positive hemoccult, visible blood traces in stool, rectal bleeding); • 2- stool consistency (normal, soft, diarrhea); • 3- body weight loss (score 0: 0-1 %; 1: 1.5-5%; 2: 5.5-10%; 3: 10.5-15 %; 4: 15.5-20 %; 5: >20%). […]
Once the mouse was euthanized, the colon was collected, and its length was measured. Lesion length was also measured. Colon lesions was scored macroscopically based on inflammation, thickening and vascularization to give an overall macroscopic inflammation score of each animal in the study. […]
Statistical differences among groups were determined using a two-way ANOVA, followed by a post-hoc analysis, using Tukey’s multiple comparison test, to compare each group to the DSS+vehicle control group. […]

Compound: CC(C)C[C@@H]1NC(=O)c2ccc(-c3ccc(N4CCN(C(=O)c5ccccc5-c5ccccc5C(=O)N5CCN(c6ccc(-c7ccc8cc7CNC(=O)[C@@H]7CCCN7[C@H](C(=O)NC(C)(C)C)[C@H](C)NC(=O)[C@H]([C@@H](C)O)NC(=O)[C@H](CC(=O)O)NC(=O)[C@H](CC(C)C)NC8=O)cc6)CC5)CC4)cc3)c(c2)CNC(=O)[C@@H]2CCCN2[C@H](C(=O)NC(C)(C)C)[C@H](C)NC(=O)[C@H]([C@@H](C)O)NC(=O)[C@H](CC(=O)O)NC1=O [Example 1, 2,2′-((S,S,S,S,S,S,1^2,8S,11S,14S,17S,18S)-((([1,1′-Biphenyl]-2,2′-Dicarbonyl)-Bis(Piperazine-4,1-Diyl))Bis(4,1-Phenylene))Bis(18-(Tert-Butylcarbamoyl)-14-((R)-1-Hydroxyethyl)-8-Isobutyl-17-Methyl-2,6,9,12,15-Pentaoxo-3,7,10,13,16-Pentaaza-1(2,1)-Pyrrolidina-5(1,3)-Benzenacyclooctadecaphane-5^6,11-Diyl))-Diacetic Acid]
- effect on DAI score (100 mg/kg p.o. once daily day 0-14, DSS mice, vs DSS + vehicle): did not lead to any beneficial effect
- macroscopic inflammation score, % less than DSS + vehicle (100 mg/kg p.o. once daily day 0-14, colon at day 14, significant difference): around 30%
- MPO U/g colon protein, % less than DSS + vehicle (100 mg/kg p.o. once daily day 0-14, medio-distal colon, ELISA, not statistically significant): approximately 49%
